Like-named read-outs stand apart in the source and are kept apart here.
Key:
hTREK-1 [1] = target: T1, hTREK-1 (Homo sapiens, UniProt O95069)
T1 sequence (O95069 1-422 isoform O95069-3): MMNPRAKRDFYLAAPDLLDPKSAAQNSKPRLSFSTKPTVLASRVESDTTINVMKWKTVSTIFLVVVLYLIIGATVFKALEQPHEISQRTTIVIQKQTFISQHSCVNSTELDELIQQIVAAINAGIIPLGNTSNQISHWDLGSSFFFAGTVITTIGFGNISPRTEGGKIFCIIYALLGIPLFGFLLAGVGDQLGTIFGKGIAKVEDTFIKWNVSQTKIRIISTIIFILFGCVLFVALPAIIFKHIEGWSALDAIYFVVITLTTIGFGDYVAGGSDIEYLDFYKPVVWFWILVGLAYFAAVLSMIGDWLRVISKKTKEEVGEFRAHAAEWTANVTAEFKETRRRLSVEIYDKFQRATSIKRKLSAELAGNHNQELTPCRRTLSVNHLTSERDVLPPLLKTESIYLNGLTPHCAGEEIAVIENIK

hTREK-1 [2] = target: T1, hTREK-1; test: Whole cell patch clamp on HEK-hTREK-1 cells; type: cell-based; design: transfected with the human Kcnk2 (NM_001017424) or Kcnk10 (NM_021161) ORF cloned in a pEZ-M02 expression vector
CD1 mice [3] = test: Hargreaves test in carrageenan-induced paw inflammation; type: in vivo, mouse
naive HEK293 cells = test: Thallium flux assay on naive (untransfected) HEK293 cells; settings: 10 µM
Protocol: Cells were plated in 384-well plates with black walls and clear bottom coated with poly-D-lysine (Greiner Bio-One, Kremsmünster, Austria, #781946) at a density of 25 000 cells/well from a 1 250 000 cells/mL solution. Cell counting was performed with an automatic cell counter (Countness II FL, ThermoFisher, Waltham, MA, USA) with addition of trypan blue 0.2% to exclude dead cells. 24 h after plating, cells were incubated with FluxOR II green probe (ThermoFisher) for 1 h in the dark, accordingly to the supplier’s protocol (‘no wash’ procedure) with addition of 77 mg/mL probenecide. […] Fluorescence was measured every 3 s during 1 min (excitation 485 nm, emission 515 nm), and 0.5 mM thallium was added to the wells after a 20 s baseline. […] Fluorescence is normalized using the formula (F − F0)/F0 where F0 is the average fluorescence during the first 18 s of the recording. ΔFmax/F0 is calculated between 18 and 33 s (−2 to 13 s relative to thallium addition). For dose–response curves, ΔFmax/F0 are expressed as %vehicle (100% corresponding to the average ΔFmax/F0 measured in vehicle-treated wells). For high throughput screening, Z scores were calculated as(1) Z=Xsample−X¯neg/σneg where X represents ΔFmax/F0 and σ the ΔFmax/F0 standard deviation. ‘neg’ represents negative controls (vehicle-treated wells). […]

hTREK-1 [4] = target: T1, hTREK-1; test: cell-based
CD1 mice [5] = test: Open field test in CD1 mice; type: in vivo, mouse; settings: i.p., 15 min before open field test
Protocol: (§1) Mice were placed in the center of a 50 × 50 cm arena with 45 cm high walls. Animals were filmed for 10 min and the distance traveled was measured using video-tracking software (Viewpoint Videotrack 5.13.0.10).
To search for possible adverse effects induced by LPS2336 in vivo, we submitted CD1 mice to different confounding tests aiming at characterizing motor coordination, balance, muscle strength and spontaneous locomotor activity. […] To assess the contribution of TREK-1 to this adverse effect, we submitted TREK-1 knock-out mice (which are of the C57Bl6/J background) to the same test, 15 min following the injection of 50 mg/kg LPS2336. […] We finally submitted the mice to a third test consisting in observing their spontaneous locomotion in an open arena (open field test). […] Finally, we monitored the body temperature of mice for 45 min after intraperitoneal injection of LPS2336 at 40 mg/kg and could observe hypothermia in both WT and TREK-1 KO (−2.4 and −2.6 °C, respectively) following LPS2336 treatment (Figure 7F,G).

[6] = test system: WT and TREK-1 KO littermates of C57Bl6/J background; test: Horizontal bar test in WT and TREK-1 KO littermates; type: in vivo, mouse; settings: i.p. 50 mg/kg, 15 min
From the text: (§2) TREK-1^−/− mice were generated by crossing mice carrying an allele of the Kcnk2 gene in which exon 3 was floxed (RRID:MGI:3050295) with ZP3-Cre mice (RRID:MGI:3835429), both in C57Bl6/J background. F1 females, producing TREK-1^+/− oocytes, were crossed with WT males. TREK-1^+/− F2 offspring not carrying the ZP3-Cre transgene were finally crossed together to generate TREK-1^−/− and TREK-1^+/+ littermates, which were weaned in separate cages after genotyping using 2 mm tail samples taken at 10 days of age. Animals were identified by digital tattoos at 3 weeks of age.
A 13 cm long, 2 mm diameter metal bar was placed horizontally between 2 rods at a 30 cm height. […] After gently releasing the tail, the time taken by mice to climb on the bar (grabbing it with their four paws) was monitored.
(§3) To search for possible adverse effects induced by LPS2336 in vivo, we submitted CD1 mice to different confounding tests aiming at characterizing motor coordination, balance, muscle strength and spontaneous locomotor activity. […] Finally, we monitored the body temperature of mice for 45 min after intraperitoneal injection of LPS2336 at 40 mg/kg and could observe hypothermia in both WT and TREK-1 KO (−2.4 and −2.6 °C, respectively) following LPS2336 treatment (Figure 7F,G).

[7] = test system: WT and TREK-1 KO littermates of C57Bl6/J background; test: Body temperature monitoring (rectal probe); type: in vivo, mouse; settings: i.p. 40 mg/kg, 15 min after injection minus before
From the text: as §2
Body temperature was measured using a rectal probe in awake animals before and 15, 30 and 45 min after injection of LPS2336.
To search for possible adverse effects induced by LPS2336 in vivo, we submitted CD1 mice to different confounding tests aiming at characterizing motor coordination, balance, muscle strength and spontaneous locomotor activity. […] To assess the contribution of TREK-1 to this adverse effect, we submitted TREK-1 knock-out mice (which are of the C57Bl6/J background) to the same test, 15 min following the injection of 50 mg/kg LPS2336. […] Finally, we monitored the body temperature of mice for 45 min after intraperitoneal injection of LPS2336 at 40 mg/kg and could observe hypothermia in both WT and TREK-1 KO (−2.4 and −2.6 °C, respectively) following LPS2336 treatment (Figure 7F,G).

[8] = test system: WT and TREK-1 KO littermates of C57Bl6/J background; test: Open field test in WT and TREK-1 KO littermates; type: in vivo, mouse; settings: i.p. 50 mg/kg
From the text: as §2, §1, §3

[9] = 50 µM, HEK-hTREK-1 cells, vs vehicle

CCOC(=O)CN1CCC(Cc2ccccc2)CC1 [2h]
TREK-1 activation by analogs (hTREK-1 [1]): severely impacted TREK-1 activation ability

NCCN1CCC(Cc2ccccc2)CC1 [2j]
TREK-1 activation by analogs (hTREK-1 [1]): severely impacted TREK-1 activation ability

N#CCCCN1CCC(Cc2ccccc2)CC1 [2e]
TREK-1 activation by analogs (hTREK-1 [1]): profound decrease in TREK-1 activation

N#CCN1CCCCC1 [2d]
TREK-1 activation by analogs (hTREK-1 [1]): loss of TREK-1 activation

NC(=O)CN1CCC(Cc2ccccc2)CC1 [2k]
TREK-1 activation by analogs (hTREK-1 [1]): severely impacted TREK-1 activation ability

Nc1ccc(Oc2ccc(C(c3ccc(Oc4ccc(N)cc4)cc3)(C(F)(F)F)C(F)(F)F)cc2)cc1 [GI-530159]
increase of mean current density recorded at 0 mV (hTREK-1 [2]; [9]): 9.73 fold

N#CCCN1CCC(Cc2ccccc2)CC1 [2a]
TREK-1 activation by analogs (hTREK-1 [1]): profound decrease in TREK-1 activation

c1ccc(CC2CCN(Cc3ccccc3)CC2)cc1 [2f]
TREK-1 activation by analogs (hTREK-1 [1]): profound decrease in TREK-1 activation

CNCCC(Oc1ccc(C(F)(F)F)cc1)c1ccccc1 (centres unmarked) [fluoxetine, reference compound]
TREK-1 activation (ΔFmax/F0) (hTREK-1 [1]): 54 % of vehicle

CN1CC[C@]23c4c5ccc(O)c4O[C@H]2[C@@H](O)C=C[C@H]3[C@H]1C5 [morphine, reference compound]
analgesia after intracerebroventricular administration (CD1 mice [3]; intracerebroventricular, 1 µg (3.5 nmol)): analgesic
analgesia after intrathecal administration (CD1 mice [3]; intrathecal, 3 µg (10.5 nmol)): long-lasting analgesia

Cc1cc(Cl)ccc1OCCNC(=O)c1cccs1 [ML402, reference compound]
effect of salification on TREK-1 activation (hTREK-1 [1]; 100 µM): increased TREK-1 activation

CCCCN1CCC(Cc2ccccc2)CC1 [2g]
TREK-1 activation by analogs (hTREK-1 [1]): profound decrease in TREK-1 activation

O=C(O)CN1CCC(Cc2ccccc2)CC1 [2i]
TREK-1 activation by analogs (hTREK-1 [1]): severely impacted TREK-1 activation ability

CS(=O)(=O)Nc1ccc(C(=O)NCc2ccc(Cl)cc2Cl)cc1 [ML335, reference compound]
increase of mean current density recorded at 0 mV (hTREK-1 [2]; [9]): 13.35 fold
increase in ΔFmax/F0 (hTREK-1 [1]): 2.60 fold
effect of salification on TREK-1 activation (hTREK-1 [1]; 100 µM): increased TREK-1 activation
EC50 (hTREK-1 [1]; read-out: EC50 (TREK-1 activation, thallium assay)): 6.7 µM

CCC#CCN1CCC(Cc2ccccc2)CC1 [2c]
TREK-1 activation by analogs (hTREK-1 [1]): profound decrease in TREK-1 activation

c1ccc(-c2nn[nH]n2)c(Nc2cccc3c2CCCC3)c1 [BL-1249, reference compound]
effect on fluorescence in naive cells (naive HEK293 cells): no effect
concentrations at which active on TREK-1 (hTREK-1 [1]): active at sub-micromolar concentrations
toxicity to HEK-hTREK-1 cells (hTREK-1 [1]; 100 µM): visible cell death

O=C(NCCCCN1CCN(Cc2ccccc2)CC1)c1ccc2ccccc2c1 [LPS6257]
change in ΔFmax/F0 compared to the vehicle condition (hTREK-1 [1]): −70%

N#CCN1CCC(Cc2ccccc2)CC1 [LPS2336]
increase of mean current density recorded at 0 mV (hTREK-1 [2]): 10.77 fold
EC50 (hTREK-1 [4]): 11.8 µM
dose able to reverse the pain phenotype (CD1 mice [3]; intracerebroventricular, effect similar to 1 µg morphine): 100 µg
dose at which the analgesic effect reaches a plateau (CD1 mice [3]; intraperitoneal): 20 mg/kg
time of peak analgesia after injection (CD1 mice [3]; intraperitoneal): 15 min
dose from which pain thresholds are increased (CD1 mice [3]; intraperitoneal, carrageenan-injected CD1 mice): ≥ 20 mg/kg
effect on pain thresholds at the highest intrathecal dose (CD1 mice [3]; intrathecal, 300 µg (1400 nmol)): slight, non-significant effect
pain relief after intrathecal administration (CD1 mice [3]; intrathecal, doses up to 300 µg): not effective
dose from which spontaneous locomotion is decreased (CD1 mice [5]): ≥ 30 mg/kg
horizontal bar test, WT vs TREK-1 KO [6]: no difference between WT and TREK-1 KO mice
time to climb on horizontal bar in WT littermates ([6]; C57Bl6/J WT): same increase in time to climb
average Z score in high throughput screening (hTREK-1 [1]): 3.50 ± 0.24
times over the positivity threshold (hTREK-1 [1]): 3/3
change in body temperature (hypothermia), WT mice ([7]; C57Bl6/J WT): −2.4 °C
change in body temperature (hypothermia), TREK-1 KO mice ([7]; TREK-1 KO): −2.6 °C
open field test, WT vs TREK-1 KO [8]: no difference between WT and TREK-1 KO mice
spontaneous locomotion in C57Bl6/J mice [8]: same adverse effect as CD1 mice

CC1CCN(CC#N)CC1 [2b]
TREK-1 activation by analogs (hTREK-1 [1]): loss of TREK-1 activation

— publication PMC12109561, “LPS2336, a New TREK-1 Channel Activator Identified by High Throughput Screening” (Biomolecules, 2025)
